According to patent publication US20060165821A1, “Composition comprising scutellaria baicalensis and their uses thereof” (priority 2002, published 2006):

Tests used:
[1] = Paw edema induced by Freund's complete adjuvant in rats; assay type: in vivo, Wistar rats; details: X ± SD, n = 6, oral gavage once per day
Description: The anti-arthritic activity of Scutellaria baicalensis formula was confirmed in animal study. Eight week-old male Wistar rats were received intradermal injections of 0.1 ml Freund's complete adjuvant (FCA, 7.5 mg/ml) to the paw of the right hindfood. At 14 days, paw edema was induced and rats were randomized into three groups (n=6) including control group, Scutellaria baicalensis formula group (30 mg/kg of Scutellaria baicalensis, 10 mg/kg of Glucosamine and 8 mg/kg of Chondroitin) and indomethacin group (12.5 mg/kg) which serves as a positive control. The treatment groups were given Scutellaria baicalensis formula or indomethacin by oral gavage once per day for a duration of 10 days. The diameters of paw were measured at 16, 20 and 24 days.

IL-6 = IL-6 in serum of rats with adjuvant arthritis (ELISA); assay type: in vivo; details: end of experiment, X ± SD, n = 6
Text: (§1) Osteoarthritis is characterized by articular cartilage degradation and hypertrophic joint changes. Pro-inflammatory cytokines (IL-1, IL-6, TNF-α) are considered to play important roles in the initiation and development of osteoarthritis (Inoue et al. British Journal of Pharmacology 136:287-295 (2002)). Prostaglandin (PG) E2 has catabolic effects on the articular cartilage in OA (Futani et al J Immunother 2002 1;25(0):S61-S64). Therefore, we measured IL-6 and PGE2 in rats' blood with adjuvant-induced arthritis treated with Scutellaria baicalensis formula using ELISA assay. At the end of the experiment in Example 4.1, IL-6 in serum and PGE2 in articular fluid were assessed.

PGE2 = PGE2 in articular fluid of rats with adjuvant arthritis (ELISA); assay type: in vivo; details: end of experiment, X ± SD, n = 6
Text: as §1

SCC-25 cells = experiment: Previously determined IC50 of celecoxib; assay type: cell-based; details: Homo sapiens, quantity inhibited not stated
Description: Benzo[a]pyrene (BaP), one of the compounds released from smoking, is a prototypical carcinogen. It is a polycyclic aromatic hydrocarbon (PAH) compound and is found in high quantity (20-40 ng) in each cigarette. BaP is metabolized and activated to become the ultimate carcinogenic metabolite [(+)-anti-7b,8a-dihydroxy-9a,10a-epoxy-7,8,9,10-tetrahydorbenzo[a]pyrene], also known as BPDE. […] We examined the counter-stimulatory effect of Scutellaria baicalensis on BaP-induced COX-2 activity. After the treating SCC-25 cells with BaP for 6 hours, the supernatants were removed and the cells were washed with PBS. […] This situation resembles the chemoprevention in the former smokers.

[2] = mice or rats; 500 mg/kg oral, 3000 mg/kg IM, 1500 mk/kg IV; cited from earlier work
[3] = following an oral dose; cited from earlier work

COc1ccc2c(c1)c(CC(=O)O)c(C)n2C(=O)c1ccc(Cl)cc1 [Indomethacin]
changes of paw edema ([1]; 16 d): 0.929 ± 0.214 | changes of paw edema ([1]; 20 d): 0.771 ± 0.160 | changes of paw edema ([1]; 24 d): 0.400 ± 0.245 | IL-6 (IL-6): 6.0 ± 3.1 pg/mL | PGE2 (PGE2): 6.00 ± 3.1 pg/mL

Cc1ccc(-c2cc(C(F)(F)F)nn2-c2ccc(S(N)(=O)=O)cc2)cc1 [celecoxib]
IC50 (SCC-25 cells): 25 µM

N[C@H]1C(O)O[C@H](CO)[C@@H](O)[C@@H]1O.O=S(=O)(O)O (some centres unmarked) [glucosamine sulfate]
mortality [2]: No mortality

Chondroitin sulfate
tolerability / signs or symptoms of toxicity [3]: well tolerated
